The text below walks through data of US20250025518A1, “USE OF BIFIDOBACTERIUM LACTIS BL-99 IN PROTECTION OF CARTILAGE” (Inner Mongolia Yili Industrial Group Co., Ltd., priority 2021, published 2025).

The test concerns zebrafish cartilage. Briefly: Evaluation of cartilage protection efficacy: fluorescence intensity of cartilage in dexamethasone-induced zebrafish cartilage damage model. The test is classed as in vivo. The settings on record: for Fluorescence intensity of cartilage (pixel, mean ± SE): n = 10.

Regarding Chondroitin sulfate A sodium salt, the “Fluorescence intensity of cartilage (pixel, mean ± SE)” value runs as follows: (Table 2, 1000 μg/mL) 277530 ± 20981 pixel; (Table 3, 1000 μg/mL) 296517 ± 25160 pixel. In addition, where the note is “Table 3, 1000 μg/mL”, the “Increased cartilage protection efficacy (%) compared with the model group” value is 44%.
